For experiment [1], the system named is primary normal human bladder epithelial cells. The experiment can be described thus: 3H-thymidine incorporation. It counts as cell-based. For orientation: Incorporation of labelled thymidine or its analogues reports DNA synthesis.
For experiment [2] the test system is unchanged. Particulars: biological antiproliferation assays; cited from earlier work.
In experiment [3] the test system is normal bladder epithelial as well as cells derived from urothelial carcinomas. As to conditions: native and synthetic APF; cited from earlier work.

Galβ1-3GalNAcα-O-SLPAAVVVA [compound 2]: the “loss of potency/activity compared to parent as-APF 1 (orders of magnitude)” value in experiment [1] is on record as 2 orders of magnitude.
Consider Galβ1-3GalNAcα-O-SVPAAVVVA [compound 3], for which, in experiment [1], the “loss of potency/activity compared to parent as-APF 1 (orders of magnitude)” value was 4 orders of magnitude.
As to Galβ1-3GalNAcα-O-TLPAAVVVA [compound 4], in experiment [1], the “antiproliferative activity relative to as-APF 1 (in words)” value was “inactivation”.
For “Galβ1-3GalNAcα-O-TLS(^ΨMe,Mepro)-AAVVVA [compound 9]”, the “antiproliferative activity relative to as-APF 1 (in words)” value in experiment [1] is reported as “completely abolished activity”.
On to “Galβ1-3GalNAcα-O-TV-Aze-AAVVVA [compound 10]”, for which, in experiment [1], the “antiproliferative activity relative to as-APF 1 (in words)” value is recorded as “completely abolished activity”.
With “Galβ1-3GalNAcα-O-TV-Hyp-AAVVVA [compound 12]”, in experiment [1], the “loss of potency/activity compared to parent as-APF 1 (orders of magnitude)” value is reported as 2–3 orders of magnitude.
For “Galβ1-3GalNAcα-O-TV-Pip-AAVVVA [compound 15]”, in experiment [1], the “antiproliferative activity relative to as-APF 1 (in words)” value is “complete retention”.
With “Galβ1-3GalNAcα-O-TVPAAAAAA [compound 25]”, the “antiproliferative activity relative to as-APF 1 (in words)” value in experiment [1] is on record as “decreased as-APF activity”.
For “Galβ1-3GalNAcα-O-TVPAAGGGA [compound 26]”, the “antiproliferative activity relative to as-APF 1 (in words)” value in experiment [1] is reported as “complete inactivation”.
As to “Galβ1-3GalNAcα-O-TVPAAVVVAK [compound 33]”, the “antiproliferative activity relative to as-APF 1 (in words)” value in experiment [1] is recorded as “complete loss of activity”.
The same measure, in the same setting: as for “Galβ1-3GalNAcα-O-TVPAAVVVAK(Ac) [compound 35]”, the entry is “some of which was restored”.
Same read-out and setting: to “Galβ1-3GalNAcα-O-TVPAAVVVAK(dansyl) [compound 31]” belongs “no loss of activity”.
Galβ1-3GalNAcβ-O-TVPAAVVVA: in experiment [2], the “antiproliferative activity (previously determined, in words)” value was “completely inactive”.
Regarding Galβ1-4GlcNAcα-O-SLPAAVVVA, the “antiproliferative activity (previously determined, in words)” value in experiment [2] is recorded as “essentially equipotent”.
Regarding “Neu5Acα2-3Galβ1-3GalNAcα-O-TVPAAVVVA [APF]”, in experiment [3], the concentrations inhibiting proliferation entry is recorded as “picomolar to low nanomolar”. For the same substance, the “antiproliferative activity (previously determined, in words)” value in experiment [2] was “essentially equipotent”.
For the substance Neu5Acα2-3Galβ1-4GlcNAcα-O-TVPAAVVVA, the “antiproliferative activity (previously determined, in words)” value in experiment [2] is recorded as “essentially equipotent”.
For Neu5Acα2-3Galβ1-4GlcNAcαO-SLPAAVVVA, the “antiproliferative activity (previously determined, in words)” value in experiment [2] is on record as “essentially equipotent”.
As for TVPAAVVVA [nonglycosylated nonapeptide], in experiment [2], the “antiproliferative activity (previously determined, in words)” value was “completely inactive”.

(Values after paper PMC2778288 (Journal of medicinal chemistry, 2008).)
